From ChEMBL document CHEMBL1149192, “Mechanism of inactivation of beta-lactamases by novel 6-methylidene penems elucidated using electrospray ionization mass spectrometry” (J Med Chem, 2004)

Tests used:
Beta-lactamase TEM = Beta-lactamase TEM (Escherichia coli, UniProt P62593); assay: In vitro inhibitory activity against Class A (TEM-1) beta-Lactamases
IMI-1 = IMI-1 (Enterobacter cloacae, UniProt Q46991); assay: In vitro inhibitory activity against Class A (Imi-1) beta-Lactamases
Beta-lactamase = Beta-lactamase (Escherichia coli K-12, UniProt P00811)
Beta-lactamase, sequence (P00811 whole entry): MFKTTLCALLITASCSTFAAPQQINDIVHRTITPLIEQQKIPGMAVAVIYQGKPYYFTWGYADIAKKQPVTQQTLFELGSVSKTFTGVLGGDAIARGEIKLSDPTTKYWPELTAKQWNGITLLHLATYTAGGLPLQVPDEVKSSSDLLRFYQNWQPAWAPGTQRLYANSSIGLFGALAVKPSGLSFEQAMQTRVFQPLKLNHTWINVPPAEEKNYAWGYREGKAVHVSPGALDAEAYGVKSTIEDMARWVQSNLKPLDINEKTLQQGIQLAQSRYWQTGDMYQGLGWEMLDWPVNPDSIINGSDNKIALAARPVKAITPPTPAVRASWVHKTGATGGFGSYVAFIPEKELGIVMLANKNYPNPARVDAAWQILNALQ
Description: In vitro inhibitory activity against Class C (Amp-C) beta-Lactamases

[1] = target: Metallo-beta-lactamase type 2 (Bacteroides fragilis, UniProt P25910); assay: In vitro inhibitory activity against Class B (CCRA) beta-Lactamases
Metallo-beta-lactamase type 2, sequence (P25910 whole entry): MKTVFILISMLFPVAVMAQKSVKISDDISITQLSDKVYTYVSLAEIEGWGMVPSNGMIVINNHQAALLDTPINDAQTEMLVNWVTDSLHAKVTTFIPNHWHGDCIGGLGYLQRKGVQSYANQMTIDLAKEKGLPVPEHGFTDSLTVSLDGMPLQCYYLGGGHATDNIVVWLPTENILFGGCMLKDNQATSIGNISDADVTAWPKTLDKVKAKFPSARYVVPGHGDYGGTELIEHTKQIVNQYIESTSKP

Beta-lactamase TEM, sequence (P62593 whole entry): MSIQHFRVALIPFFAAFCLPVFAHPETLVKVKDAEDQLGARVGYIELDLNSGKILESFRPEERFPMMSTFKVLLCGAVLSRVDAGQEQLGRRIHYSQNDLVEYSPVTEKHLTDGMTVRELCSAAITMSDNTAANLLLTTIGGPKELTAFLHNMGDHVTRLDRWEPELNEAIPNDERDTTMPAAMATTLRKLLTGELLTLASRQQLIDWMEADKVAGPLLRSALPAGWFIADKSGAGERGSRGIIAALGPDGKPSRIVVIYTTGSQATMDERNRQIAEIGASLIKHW
IMI-1, sequence (Q46991 whole entry): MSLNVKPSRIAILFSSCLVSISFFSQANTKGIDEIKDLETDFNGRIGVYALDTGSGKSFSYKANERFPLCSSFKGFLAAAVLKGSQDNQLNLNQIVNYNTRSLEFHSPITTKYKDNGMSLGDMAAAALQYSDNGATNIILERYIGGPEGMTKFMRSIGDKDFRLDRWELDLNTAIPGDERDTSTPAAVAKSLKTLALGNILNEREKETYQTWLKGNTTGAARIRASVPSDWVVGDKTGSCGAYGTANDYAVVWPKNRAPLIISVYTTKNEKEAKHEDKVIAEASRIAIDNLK

SMILES	IC50 (Beta-lactamase TEM) [nM]	IC50 (IMI-1) [nM]	IC50 (Beta-lactamase) [nM]	IC50 [1] [nM]
O=C(O)C1=CS[C@@H]2/C(=C\c3cnc4n3CCNC4)C(=O)N12	5	28	6	320
O=C(O)C1=CS[C@@H]2/C(=C\c3cn4c5c(sc4n3)CCC5)C(=O)N12	1		2	
O=C(O)C1=CS[C@@H]2/C(=C\c3cc4n(n3)CCC4)C(=O)N12	1		2	
O=C(O)C1=CS[C@@H]2/C(=C\c3cnc4n3CCOC4)C(=O)N12	0.4	8	5	66
